Read-outs that look alike come from different tables or passages of the source. Square brackets hold non-standard residues; d marks the D form. Peptide text beside a SMILES is read from it. * marks the point of attachment. Octanoyl = CCCCCCCC(=O)*; Aib = CC(C)(N)C(=O)O; Inp = O=C(O)C1CCNCC1
Key:
[1] = Rat plasma ½ life (stability in plasma in a rat model); assay type: in vitro ADME
Description: A selection of the preferred embodiments listed above was analyzed to determine stability, i.e. ½ life in plasma in a rat model using techniques known to those skilled in the art.

human GSH receptor = molecular target: T1, human GSH receptor (Homo sapiens, UniProt Q92847); test: In vitro GSH receptor mediated intracellular iCa2+ mobilization (Fura-2AM, CHO-K1 cells); assay type: cell-based; conditions: CHO-K1 cells expressing the human receptor, 37° C.
T1 construct: The full length human GHS-R was subcloned into the mammalian expression vector pcDNA 3.1; expressed in transfected cells
T1 sequence (Q92847 whole entry): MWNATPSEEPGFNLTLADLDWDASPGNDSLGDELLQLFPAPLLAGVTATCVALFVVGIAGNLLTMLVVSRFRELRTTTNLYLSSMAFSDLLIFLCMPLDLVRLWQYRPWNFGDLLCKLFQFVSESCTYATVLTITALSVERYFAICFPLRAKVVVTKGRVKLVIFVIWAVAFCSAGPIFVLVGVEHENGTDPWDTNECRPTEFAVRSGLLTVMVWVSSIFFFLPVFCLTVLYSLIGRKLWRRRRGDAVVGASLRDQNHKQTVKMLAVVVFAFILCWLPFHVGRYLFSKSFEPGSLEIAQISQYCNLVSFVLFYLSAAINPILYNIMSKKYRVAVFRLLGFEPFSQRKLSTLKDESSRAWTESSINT
Description: 2A. In vitro GSH Receptor Mediated Intracellular iCa^2+Mobilization
The foregoing CHO-K1 cells expressing the human GSH receptor were harvested by incubating in a 0.3% EDTA/phosphate buffered saline solution at 25° C.; the cells were then washed 2 times by centrifugation. The washed cells were resuspended in Hank's buffered saline solution (HBSS) for loading of the fluorescent Ca^2+ indicator Fura-2AM. Cell suspensions of approximately 10^6 cells/ml were incubated with 2 μM Fura-2AM for about 30 minutes at about 25° C. Unloaded Fura-2AM was removed by centrifugation twice in HBSS and the final suspensions were transferred to a spectrofluorometer (model Hitachi F-2000® Tokyo, Japan) equipped with a magnetic stirring mechanism and a temperature-regulated cuvette holder. After equilibration to 37° C., the ghrelin analogs were added for measurement of intracellular Ca^2+ mobilization. The excitation and emission wavelengths were 340 and 510 nm, respectively. An increase in the amount of Ca^2+ measured was indicative of agonist activity of a tested peptide while a decrease in the amount (or lack of) Ca^2+ measure was indicative of antagonist activity of a tested peptide.

[2] = rat, in vivo; cited from earlier work
[3] = human, in vivo; cited from earlier work

Row | Compound | Rat Plasma ½ life [1] | further results
1 | CCCCCCNC(=O)CC[C@H](NC(=O)C(C)(C)NC(=O)C1CCN(C(C)=O)CC1)C(=O)N[C@@H](Cc1ccccc1)C(=O)N[C@@H](CC(C)C)C(=O)N[C@@H](CO)C(=O)N1CCC[C@H]1C(=O)N[C@@H](CCC(=O)O)C(=O)N[C@@H](Cc1c[nH]cn1)C(=O)NC(C)(C)C(=O)N[C@@H](CCCNC(=N)N)C(=O)N[C@H](C(=O)N[C@@H](CCC(N)=O)C(=O)N[C@@H](CCC(N)=O)C(=O)N[C@@H](CCCNC(=N)N)C(=O)N[C@@H](CCCCN)C(=O)N[C@@H](CCC(=O)O)C(=O)N[C@@H](CO)C(=O)N[C@@H](CCCCN)C(=O)N[C@@H](CCCCN)C(=O)N1CCC[C@H]1C(=O)N1CCC[C@H]1C(=O)N[C@@H](C)C(=O)N[C@@H](CCCCN)C(=O)N[C@@H](CC(C)C)C(=O)N[C@@H](CCC(N)=O)C(=O)N1CCC[C@H]1C(=O)N[C@@H](CCCNC(=N)N)C(N)=O)C(C)C [Example 1, (Ac-Inp^1, Aib^2, 10, Glu(NH-hexyl)^3)hGhrelin(1-28)-NH2] | 9.4 h | agonist/antagonist activity at the ghrelin receptor (intracellular Ca2+ mobilization) (human GSH receptor): antagonistic activity
2 | CCCCCCNC(=O)CC[C@H](NC(=O)C(C)(C)NC(=O)C1CCNCC1)C(=O)N[C@@H](Cc1ccccc1)C(=O)N[C@@H](CC(C)C)C(=O)N[C@@H](CO)C(=O)N1CCC[C@H]1C(=O)N[C@@H](CCC(=O)O)C(=O)N[C@@H](Cc1c[nH]cn1)C(=O)NC(C)(C)C(=O)N[C@@H](CCCNC(=N)N)C(=O)N[C@H](C(=O)N[C@@H](CCC(N)=O)C(=O)N[C@@H](CCC(N)=O)C(=O)N[C@@H](CCCNC(=N)N)C(=O)N[C@@H](CCCCN)C(=O)N[C@@H](CCC(=O)O)C(=O)N[C@@H](CO)C(=O)N[C@@H](CCCCN)C(=O)N[C@@H](CCCCN)C(=O)N1CCC[C@H]1C(=O)N1CCC[C@H]1C(=O)N[C@@H](C)C(=O)N[C@@H](CCCCN)C(=O)N[C@@H](CC(C)C)C(=O)N[C@@H](CCC(N)=O)C(=O)N1CCC[C@H]1C(=O)N[C@@H](CCCNC(=N)N)C(N)=O)C(C)C [Example 3, (Inp^1, Aib^2, 10, Glu(NH-hexyl)^3)hGhrelin(1-28)-NH2] | 10.6 h | agonist/antagonist activity at the ghrelin receptor (intracellular Ca2+ mobilization) (human GSH receptor): antagonistic activity
3 | CCCCCCCC(=O)OC[C@H](NC(=O)C(C)(C)NC(=O)C1CCNCC1)C(=O)N[C@@H](Cc1ccccc1)C(=O)N[C@@H](CC(C)C)C(=O)N[C@@H](CO)C(=O)N1CCC[C@H]1C(=O)N[C@@H](CCC(=O)O)C(=O)N[C@@H](Cc1c[nH]cn1)C(=O)NC(C)(C)C(=O)N[C@@H](CCCNC(=N)N)C(=O)N[C@H](C(=O)N[C@@H](CCC(N)=O)C(=O)N[C@@H](CCC(N)=O)C(=O)N[C@@H](CCCNC(=N)N)C(=O)N[C@@H](CCCCN)C(=O)N[C@@H](CCC(=O)O)C(=O)N[C@@H](CO)C(=O)N[C@@H](CCCCN)C(=O)N[C@@H](CCCCN)C(=O)N1CCC[C@H]1C(=O)N1CCC[C@H]1C(=O)N[C@@H](C)C(=O)N[C@@H](CCCCN)C(=O)N[C@@H](CC(C)C)C(=O)N[C@@H](CCC(N)=O)C(=O)N1CCC[C@H]1C(=O)N[C@@H](CCCNC(=N)N)C(N)=O)C(C)C [Example 8, (Inp^1, Aib^2, 10)hGhrelin(1-28)-NH2] | 1.2 h | –
4 | CCCCCCCC(=O)OC[C@H](NC(=O)C(C)(C)NC(=O)C1CCNCC1)C(=O)N[C@@H](Cc1ccccc1)C(=O)N[C@@H](CC(C)C)C(=O)N[C@@H](CO)C(=O)N1CCC[C@H]1C(=O)NC(C)(C)C(=O)N[C@@H](Cc1c[nH]cn1)C(=O)N[C@@H](CCC(N)=O)C(=O)N[C@@H](CCCNC(=N)N)C(=O)N[C@H](C(=O)N[C@@H](CCC(N)=O)C(=O)N[C@@H](CCC(N)=O)C(=O)N[C@@H](CCCNC(=N)N)C(=O)N[C@@H](CCCCN)C(=O)N[C@@H](CCC(=O)O)C(=O)N[C@@H](CO)C(=O)N[C@@H](CCCCN)C(=O)N[C@@H](CCCCN)C(=O)N1CCC[C@H]1C(=O)N1CCC[C@H]1C(=O)N[C@@H](C)C(=O)N[C@@H](CCCCN)C(=O)N[C@@H](CC(C)C)C(=O)N[C@@H](CCC(N)=O)C(=O)N1CCC[C@H]1C(=O)N[C@@H](CCCNC(=N)N)C(N)=O)C(C)C [Example 9, (Inp^1, Aib^2, 8)hGhrelin(1-28)-NH2] | 1.2 h | –
5 | CCCCCCCC(=O)OC[C@H](NC(=O)[C@H](CCCCN)NC(=O)[C@H](CCCNC(=N)N)NC(=O)[C@H](CCC(N)=O)NC(=O)[C@H](CCC(N)=O)NC(=O)[C@@H](NC(=O)[C@H](CCCNC(=N)N)NC(=O)[C@H](CCC(N)=O)NC(=O)[C@H](Cc1c[nH]cn1)NC(=O)[C@H](CCC(=O)O)NC(=O)[C@@H]1CCCN1C(=O)[C@H](CO)NC(=O)[C@H](CC(C)C)NC(=O)[C@H](Cc1ccccc1)NC(=O)[C@H](COC(=O)CCCCCCC)NC(=O)C(C)(C)NC(=O)C1CCNCC1)C(C)C)C(=O)N[C@@H](CO)C(=O)N[C@@H](CCCCN)C(=O)N[C@@H](CCCCN)C(=O)N1CCC[C@H]1C(=O)N1CCC[C@H]1C(=O)N[C@@H](C)C(=O)N[C@@H](CCCCN)C(=O)N[C@@H](CC(C)C)C(=O)N[C@@H](CCC(N)=O)C(=O)N1CCC[C@H]1C(=O)N[C@@H](CCCNC(=N)N)C(N)=O [Example 10, (Inp^1, Aib^2, Ser(n-octanoyl)^17)hGhrelin(1-28)-NH2] | 0.6 h | –
6 | CCCCCCCC(=O)OC[C@H](NC(=O)[C@H](CO)NC(=O)C1CCNCC1)C(=O)N[C@@H](Cc1ccccc1)C(=O)N[C@@H](CC(C)C)C(=O)N[C@@H](CO)C(=O)N1CCC[C@H]1C(=O)N[C@@H](CCC(=O)O)C(=O)N[C@@H](Cc1c[nH]cn1)C(=O)N[C@@H](CCC(N)=O)C(=O)N[C@@H](CCCNC(=N)N)C(=O)N[C@H](C(=O)N[C@@H](CCC(N)=O)C(=O)N[C@@H](CCC(N)=O)C(=O)N[C@@H](CCCNC(=N)N)C(=O)N[C@@H](CCCCN)C(=O)N[C@@H](COC(=O)CCCCCCC)C(=O)N[C@@H](CO)C(=O)N[C@@H](CCCCN)C(=O)N[C@@H](CCCCN)C(=O)N1CCC[C@H]1C(=O)N1CCC[C@H]1C(=O)N[C@@H](C)C(=O)N[C@@H](CCCCN)C(=O)N[C@@H](CC(C)C)C(=O)N[C@@H](CCC(N)=O)C(=O)N1CCC[C@H]1C(=O)N[C@@H](CCCNC(=N)N)C(N)=O)C(C)C [Example 11, (Inp^1, Ser(n-octanoyl)^17)hGhrelin(1-28)-NH2] | 0.7 h | –
7 | CCCCCCCC(=O)OC[C@H](NC(=O)[C@H](CCCCN)NC(=O)[C@H](CCCNC(=N)N)NC(=O)[C@H](CCC(N)=O)NC(=O)[C@H](CCC(N)=O)NC(=O)[C@@H](NC(=O)[C@H](CCCNC(=N)N)NC(=O)[C@H](CCC(N)=O)NC(=O)[C@H](Cc1c[nH]cn1)NC(=O)C(C)(C)NC(=O)[C@@H]1CCCN1C(=O)[C@H](CO)NC(=O)[C@H](CC(C)C)NC(=O)[C@H](Cc1ccccc1)NC(=O)[C@H](COC(=O)CCCCCCC)NC(=O)C(C)(C)NC(=O)C1CCNCC1)C(C)C)C(=O)N[C@@H](CO)C(=O)N[C@@H](CCCCN)C(=O)N[C@@H](CCCCN)C(=O)N1CCC[C@H]1C(=O)N1CCC[C@H]1C(=O)N[C@@H](C)C(=O)N[C@@H](CCCCN)C(=O)N[C@@H](CC(C)C)C(=O)N[C@@H](CCC(N)=O)C(=O)N1CCC[C@H]1C(=O)N[C@@H](CCCNC(=N)N)C(N)=O [Example 12, (Inp^1, Aib^2,8, Ser(n-octanoyl)^17)hGhrelin(1-28)-NH2] (H-[Inp][Aib]S(Octanoyl)FLSP[Aib]HQRVQQRKS(Octanoyl)SKKPPAKLQPR-NH2; N-terminus assumed) | 0.7 h | –
8 | H-Gly-Ser-Ser-Phe-Leu-Ser-Pro-Glu-His-Gln-Arg-Val-Gln-Gln-Arg-Lys-Glu-Ser-Lys-Lys-Pro-Pro-Ala-Lys-Leu-Gln-Pro-Arg-NH2 (H-GSS(Octanoyl)FLSPEHQRVQQRKESKKPPAKLQPR-NH2; listed as Homo sapiens) [ghrelin] | – | apparent half-life of exogenous ghrelin [2]: 30 min; apparent half-life of exogenous ghrelin [3]: 10 min

Source: US8299022B2, “Analogs of ghrelin substituted at the N-terminal” (IPSEN Pharma S.A.S., priority 2006, dated 2012)
